Experimental data as given in paper PMC10247784, “Physiological activation of human and mouse bitter taste receptors by bile acids” (Communications Biology, 2023).

Biological target: T1, mouse Tas2r108 (Mus musculus, UniProt Q9JKT3)
T1 construct: expressed in transfected cells; host or cells: HEK293T-Gα16gust44
T1 sequence (Q9JKT3 1-297): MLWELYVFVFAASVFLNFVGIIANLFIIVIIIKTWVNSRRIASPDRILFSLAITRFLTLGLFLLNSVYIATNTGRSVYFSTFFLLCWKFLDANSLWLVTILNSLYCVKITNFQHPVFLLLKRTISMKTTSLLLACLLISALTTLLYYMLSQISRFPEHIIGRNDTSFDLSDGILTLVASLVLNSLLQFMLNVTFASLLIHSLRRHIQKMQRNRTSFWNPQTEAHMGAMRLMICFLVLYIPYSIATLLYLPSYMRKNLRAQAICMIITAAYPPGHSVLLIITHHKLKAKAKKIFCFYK
Assay: Calcium imaging assay (FLIPR), HEK293T-Gα16gust44 cells transfected with mouse Tas2r108
Format: cell-based
Outline: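 Read-out is Fluo-4 fluorescence change (ΔF/F) after automated application of bile acids (DMSO stocks) to transiently transfected cells. Values are corrected for empty-vector cells and normalized to buffer. Dose-response from three independent experiments in duplicate; threshold concentration set at p < 0.01 versus mock.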

Structure (SMILES): C[C@H](CCC(=O)O)[C@H]1CC[C@H]2[C@@H]3CC[C@@H]4C[C@H](O)CC[C@]4(C)[C@H]3C[C@H](O)[C@]12C [Deoxycholic Acid, deoxycholic acid]
- RLU (Time 0 s): 0 RLU
- RLU (Time 2 s): 10.4901 RLU
- RLU (Time 4 s): 7.695 RLU
- RLU (Time 6 s): 13.3996 RLU
- RLU (Time 8 s): 21.0752 RLU
- RLU (Time 12 s): 15.5762 RLU
- RLU (Time 14 s): 3.43 RLU
- RLU (Time 16 s): -9.281 RLU
- RLU (Time 18 s): 0.8467 RLU
- RLU (Time 137.562 s): 460.71 RLU
- RLU (Time 143.562 s): 496.814 RLU
- RLU (Time 149.562 s): 503.436 RLU
- RLU (Time 155.562 s): 499.263 RLU
- RLU (Time 161.562 s): 506.022 RLU
- RLU (Time 167.562 s): 509.176 RLU
- RLU (Time 173.562 s): 514.108 RLU
- RLU (Time 179.562 s): 522.581 RLU
- RLU (Time 185.562 s): 531.86 RLU
- RLU (Time 191.562 s): 528.694 RLU
- RLU (Time 197.562 s): 533.421 RLU
- RLU (Time 203.562 s): 538.761 RLU
- RLU (Time 209.562 s): 521.511 RLU
- RLU (Time 215.562 s): 533.378 RLU
- RLU (Time 221.562 s): 492.546 RLU
- RLU (Time 227.562 s): 477.486 RLU
- RLU (Time 233.562 s): 488.911 RLU
- RLU (Time 239.562 s): 493.745 RLU
- RLU (Time 245.562 s): 495.953 RLU
- RLU (Time 293.562 s): 458.186 RLU
- RLU (Time 299.562 s): 441.037 RLU
- RLU (Time 305.562 s): 416.756 RLU
- RLU (Time 311.562 s): 430.852 RLU
- RLU (Time 317.562 s): 450.794 RLU
- RLU (Time 323.562 s): 427.048 RLU
- RLU (Time 329.562 s): 431.797 RLU
- RLU (Time 335.562 s): 432.3 RLU
- RLU (Time 341.562 s): 422.32 RLU
- RLU (Time 347.562 s): 429.258 RLU
- RLU (Time 353.562 s): 427.233 RLU
- RLU (Time 359.562 s): 399.693 RLU
- Activation threshold concentration Tas2r108 (p < 0.01 vs empty vector): 10 µM
- RLU (time 18.797 s): 15.4 RLU
- RLU (time 20.797 s): -4.333 RLU
- RLU (time 22.797 s): -28.7534 RLU
- RLU (time 24.797 s): -22.8768 RLU
- RLU (time 26.797 s): 16.5718 RLU
- RLU (time 28.797 s): 18.9437 RLU
- RLU (time 30.797 s): 58.8166 RLU
- RLU (time 32.797 s): 83.6402 RLU
- RLU (time 34.797 s): 79.9664 RLU
- RLU (time 36.797 s): 112.495 RLU
- RLU (time 38.797 s): 144 RLU
- RLU (time 40.797 s): 169.562 RLU
- RLU (time 42.797 s): 181.196 RLU
- RLU (time 44.797 s): 204.676 RLU
- RLU (time 46.797 s): 240.06 RLU
- RLU (time 48.797 s): 220.167 RLU
- RLU (time 50.797 s): 217.063 RLU
- RLU (time 52.797 s): 250.29 RLU
- RLU (time 54.797 s): 263.514 RLU
- RLU (time 56.797 s): 298.678 RLU
- RLU (time 58.797 s): 286.664 RLU
- RLU (time 60.797 s): 326.636 RLU
- RLU (time 62.797 s): 300.232 RLU
- RLU (time 64.797 s): 322.977 RLU
- RLU (time 66.797 s): 299.438 RLU
- RLU (time 68.797 s): 333.279 RLU
- RLU (time 70.797 s): 356.797 RLU
- RLU (time 72.797 s): 351.722 RLU
- RLU (time 74.797 s): 354.974 RLU
- RLU (time 76.797 s): 350.201 RLU
- RLU (time 78.797 s): 373.335 RLU
- RLU (time 80.797 s): 363.865 RLU
- RLU (time 82.797 s): 378.202 RLU
- RLU (time 84.797 s): 377.793 RLU
- RLU (time 86.797 s): 374.495 RLU
- RLU (time 88.797 s): 427.432 RLU
- RLU (time 90.797 s): 391.234 RLU
- RLU (time 92.797 s): 431.574 RLU
- RLU (time 94.797 s): 429.345 RLU
- RLU (time 96.797 s): 437.253 RLU
- RLU (time 98.797 s): 431.746 RLU
- RLU (time 100.797 s): 440.351 RLU
- RLU (time 102.797 s): 434.297 RLU
- RLU (time 104.797 s): 432.91 RLU
- RLU (time 106.797 s): 451.262 RLU
- RLU (time 108.797 s): 460.201 RLU
- RLU (time 110.797 s): 466.157 RLU
- RLU (time 112.797 s): 486.092 RLU
- RLU (time 114.797 s): 411.046 RLU
- RLU (time 116.797 s): 482.073 RLU
- RLU (time 118.797 s): 468.374 RLU
- RLU (time 120.797 s): 468.931 RLU
- RLU (time 122.797 s): 478.657 RLU
- RLU (time 124.797 s): 472.922 RLU
- RLU (time 126.797 s): 476.391 RLU
- RLU (time 128.797 s): 502.505 RLU
- RLU (time 130.797 s): 473.229 RLU
- RLU (time 132.797 s): 511.515 RLU
- RLU (time 134.797 s): 493.882 RLU
- RLU (time 136.797 s): 440.117 RLU
